From paper PMC11904713 (ACS Omega, 2025)
Values after ≈ are worked out from the molar mass of the structure shown. Like-named read-outs stand apart in the source and are kept apart here.

How the values were obtained:
[1] = target: T1, BChE (Homo sapiens, UniProt P06276); test: BChE inhibition by IPA; assay type: biochemical; details: data not shown
[2] = tested on: AChE; test: AChE inhibition by IPA; assay type: biochemical; details: data not shown
[3] = tested on: eAChE; details: read-out: IC50 against eAChE, cited from earlier work
[4] = pH 7.3 (physiological pH); cited from earlier work
[5] = tested on: AChE; details: cited from earlier work
[6] = target: T1, BChE; details: previous study; cited from earlier work
[7] = tested on: rat cerebral cortex AChE; details: read-out: IC50, rat cerebral cortex AChE; cited from earlier work
[8] = DPPH radical scavenging activity; details: read-out: IC50, DPPH radical scavenging
[9] = ABTS radical scavenging activity; details: read-out: IC50, ABTS radical scavenging
[10] = FRAP activity; details: CUR-IPA 50 to 250 μM; ascorbic acid 2 to 10 μM

T1 sequence (P06276 29-602): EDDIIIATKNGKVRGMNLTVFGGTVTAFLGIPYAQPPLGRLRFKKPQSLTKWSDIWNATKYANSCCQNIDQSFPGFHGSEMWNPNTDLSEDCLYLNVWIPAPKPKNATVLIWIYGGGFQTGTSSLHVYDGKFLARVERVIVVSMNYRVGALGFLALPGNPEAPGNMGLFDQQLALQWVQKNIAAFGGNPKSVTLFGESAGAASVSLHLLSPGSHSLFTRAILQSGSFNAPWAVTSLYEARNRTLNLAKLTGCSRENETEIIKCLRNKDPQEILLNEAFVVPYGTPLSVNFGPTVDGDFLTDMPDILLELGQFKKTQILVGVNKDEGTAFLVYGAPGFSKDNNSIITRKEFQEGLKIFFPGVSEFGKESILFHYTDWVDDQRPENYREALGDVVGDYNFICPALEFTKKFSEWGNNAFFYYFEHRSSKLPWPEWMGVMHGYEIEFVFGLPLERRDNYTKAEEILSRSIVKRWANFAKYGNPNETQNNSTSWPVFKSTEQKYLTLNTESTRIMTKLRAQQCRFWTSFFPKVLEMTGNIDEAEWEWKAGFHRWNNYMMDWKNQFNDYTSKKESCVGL

SMILES: O=C(O)CCc1c[nH]c2ccccc12 [IPA, Indole-3-propionic acid]
- concentration showing inhibition against BChE [1]: ≥ 500 µM
- concentration showing inhibition against AChE [2]: ≥ 500 µM

SMILES: COc1cc(C=CC(=O)CC(=O)C=Cc2ccc(O)c(OC)c2)ccc1O [CUR, 1,7-bis(4-hydroxy-3-methoxyphenyl)-1,6-heptadiene-3,5-dione]
- IC50 ([3]; another study): 67.7 µM
- IC50 ([3]; previous study): 51.8 µM
- solubility [4]: 0.4 µg/mL (≈ 1.09 µM)
- effect on AChE activity in the ex vivo model [5]: did not affect AChE activity
- inhibition against BChE [6]: did not show inhibition
- IC50 [7]: 10 µM

SMILES: O=C1O[C@H]([C@@H](O)CO)C(O)=C1O [ascorbic acid]
- IC50 [8]: 34.5 µM
- IC50 [9]: 15.8 µM
- FRAP activity [10]: present linearly
